# From US12509424B2, “Compound and composition as PDGF receptor kinase inhibitor” (NIPPON SHINYAKU CO., LTD., priority 2019, dated 2025)
# What was measured:
# [1] = biological target: PDGFR-β (Homo sapiens (Human), UniProt P09619); test: PDGFR-β tyrosine kinase inhibitory action (HTRF KinEASE-TK); type: biochemical; settings: PDGFR-β enzyme 1 ng/μL, 30° C. for 30 minutes; read-out: PDGF-β IC50
# Summary of the method: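 Recombinant PDGFR-β at 1 ng/μL final with TK substrate-3-biotin in a substrate solution containing 0.6 μM ATP; buffer 50 mM HEPES pH 7.0, 5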
# [2] = biological target: TEL-PDGFRβ fusion gene transfected cells (Ba/F3); test: Suppression of proliferation of TEL-PDGFRβ fusion gene transfected Ba/F3 cells; type: cell-based, human; settings: TEL-PDGFRβ expressing Ba/F3 cells, 72 hours, final concentration 0.1 to 10,000 nM; read-out: PDGFR β/BaF3 proliferation inhibition (IC50)
# TEL-PDGFRβ fusion gene transfected cells (Ba/F3), sequence (P09619 33-1106 limits assumed, change not shown): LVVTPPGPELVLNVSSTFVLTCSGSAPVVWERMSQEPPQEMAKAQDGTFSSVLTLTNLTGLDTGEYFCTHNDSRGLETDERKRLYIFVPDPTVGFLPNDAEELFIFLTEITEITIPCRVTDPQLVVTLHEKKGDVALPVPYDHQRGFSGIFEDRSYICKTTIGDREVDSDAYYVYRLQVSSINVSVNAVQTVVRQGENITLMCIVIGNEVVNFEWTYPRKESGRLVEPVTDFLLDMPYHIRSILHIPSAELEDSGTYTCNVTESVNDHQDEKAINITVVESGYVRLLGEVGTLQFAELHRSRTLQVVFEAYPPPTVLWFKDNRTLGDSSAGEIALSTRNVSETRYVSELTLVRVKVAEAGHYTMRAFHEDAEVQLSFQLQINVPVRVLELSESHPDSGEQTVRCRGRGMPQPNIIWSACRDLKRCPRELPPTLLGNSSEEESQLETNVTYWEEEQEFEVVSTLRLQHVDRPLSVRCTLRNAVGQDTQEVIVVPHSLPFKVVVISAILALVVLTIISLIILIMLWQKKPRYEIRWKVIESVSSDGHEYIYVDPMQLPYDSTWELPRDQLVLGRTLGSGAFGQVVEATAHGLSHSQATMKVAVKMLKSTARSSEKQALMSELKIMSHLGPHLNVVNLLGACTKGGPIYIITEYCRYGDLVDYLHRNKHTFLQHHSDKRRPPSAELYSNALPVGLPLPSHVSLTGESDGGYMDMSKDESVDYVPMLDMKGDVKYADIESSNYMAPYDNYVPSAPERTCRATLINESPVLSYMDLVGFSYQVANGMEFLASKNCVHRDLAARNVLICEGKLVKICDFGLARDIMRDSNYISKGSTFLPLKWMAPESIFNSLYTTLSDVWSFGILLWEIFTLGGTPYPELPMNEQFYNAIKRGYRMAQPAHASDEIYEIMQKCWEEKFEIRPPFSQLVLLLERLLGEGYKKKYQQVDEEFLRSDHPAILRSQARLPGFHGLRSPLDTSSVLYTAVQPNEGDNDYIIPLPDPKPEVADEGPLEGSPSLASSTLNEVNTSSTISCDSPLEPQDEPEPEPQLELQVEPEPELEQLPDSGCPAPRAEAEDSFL
# Source text: 2. Preparation of Test Substance
# 4. Analysis of Measurement Results
# [3] = system: pulmonary arterial smooth muscle cells; test: Suppression of proliferation of pulmonary arterial smooth muscle cells (PDGF-BB stimulation, BrdU); type: cell-based; settings: PASMC, 24 h; healthy human derived pulmonary arterial smooth muscle cells; human PDGF-BB 10 ng/mL stimulation; BrdU uptake after 1 day; test substance final concentration 3 to 10,000 nM; read-out: Human normal PASMC proliferation suppression (PDGF stimulation_IC50)
# Summary of the method: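 Healthy human pulmonary arterial smooth muscle cells, serum-starved a day in 0.1% FBS medium, were treated with compound at final 3 to 10,000 nM plus human PDGF-BB (final 10 ng/mL) and BrdU. After 1 day of culture, BrdU uptake was measured with an anti-BrdU antibody.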
# [4] = biological target: TEL-KIT fusion gene transfected cells (Ba/F3); test: Suppression of proliferation of TEL-KIT fusion gene transfected Ba/F3 cells; settings: read-out: KIT/BaF3 proliferation inhibition (IC50); TEL-KIT expressing Ba/F3 cells, 72 hours, final concentration 0.1 to 10,000 nM;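 further: viable cells quantified via formazan from tetrazolium reduction, inhibition scaled with 0.1% DMSO control as 0% and medium-only blank as 100%, IC50 from two-parameter logistic fit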
# TEL-KIT fusion gene transfected cells (Ba/F3), sequence (P10721 26-976 limits assumed, change not shown): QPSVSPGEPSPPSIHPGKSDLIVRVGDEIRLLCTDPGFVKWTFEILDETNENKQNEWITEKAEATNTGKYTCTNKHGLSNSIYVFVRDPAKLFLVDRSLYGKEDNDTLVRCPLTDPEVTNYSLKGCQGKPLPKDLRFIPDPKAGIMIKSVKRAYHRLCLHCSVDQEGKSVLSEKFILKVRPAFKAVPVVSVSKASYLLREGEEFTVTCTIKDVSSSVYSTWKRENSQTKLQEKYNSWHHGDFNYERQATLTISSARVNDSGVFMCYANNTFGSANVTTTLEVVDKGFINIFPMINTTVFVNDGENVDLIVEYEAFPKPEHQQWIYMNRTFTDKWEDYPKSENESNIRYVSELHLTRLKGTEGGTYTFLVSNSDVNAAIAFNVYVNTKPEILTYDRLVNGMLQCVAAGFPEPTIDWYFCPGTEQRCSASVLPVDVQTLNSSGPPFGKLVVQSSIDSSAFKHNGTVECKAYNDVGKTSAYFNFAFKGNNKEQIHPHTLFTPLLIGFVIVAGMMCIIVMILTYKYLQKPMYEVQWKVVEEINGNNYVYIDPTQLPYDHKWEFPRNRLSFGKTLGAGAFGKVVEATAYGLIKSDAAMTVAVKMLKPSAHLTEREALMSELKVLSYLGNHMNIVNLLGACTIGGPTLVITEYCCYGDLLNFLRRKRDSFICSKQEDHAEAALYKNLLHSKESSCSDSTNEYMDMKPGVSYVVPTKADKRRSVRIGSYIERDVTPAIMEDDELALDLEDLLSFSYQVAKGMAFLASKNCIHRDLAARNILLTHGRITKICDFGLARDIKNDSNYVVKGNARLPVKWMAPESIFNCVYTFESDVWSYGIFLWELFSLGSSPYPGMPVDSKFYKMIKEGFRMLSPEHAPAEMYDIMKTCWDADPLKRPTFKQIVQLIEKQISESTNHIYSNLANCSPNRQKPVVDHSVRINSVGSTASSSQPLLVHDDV
# Source text: Fabrication of TEL-PDGFRβ and TEL-KIT Fusion Gene Transfected Cells
# Subsequently, the vectors for gene transfection were introduced using a transfection reagent (FuGENE6, Promega Corporation) into packaging cells derived from a human fetal kidney cell line, PLAT-E, in the logarithmic growth phase. Since the culture supernatant of PLAT-E after the gene transfection contained virus particles for gene transfection, it was collected and used as a medium for gene transfection. The medium for gene transfection was added to a plate coated with RetroNectin and incubated, and the virus particles were allowed to adhere to the plate. Thereafter, the mouse pro-B cell line Ba/F3 in the logarithmic growth phase was seeded onto the plate and infected with the virus to fabricate cells that proliferate in a PDGFRβ or KIT dependent manner.
# The test substance was prepared with dimethyl sulfoxide (DMSO) to 10 mM and diluted with DMSO so as to reach a concentration of 0.0001 to 3 mM. Furthermore, it was diluted by 100 times with distilled water.
# Measurement of Suppression Action Against Proliferation of TEL-PDGFRβ or TEL-KIT Expressing Cells
# The day after TEL-PDGFRβ and TEL-KIT expressing cells were seeded onto 96 well plates, the prepared test substance solution was added thereto with a final concentration being 0.1 to 10,000 nM. After 72 hours, the viable cell count was measured using the amount of formazan generated from the reduction of a tetrazolium salt compound by the mitochondrial dehydrogenase of viable cells as an indicator.
# Based on the amount of formazan in each condition, the suppression rate against cell proliferation was calculated when the amounts of formazan in the negative control (0.1% DMSO solution) and Blank (medium only) were defined as 0% and 100%, respectively. Subsequently, a nonlinear regression analysis with a two parameter logistic model for the log dose and suppression rate against cell proliferation was carried out using the SAS system (SAS Institute Inc.) to estimate the IC50 value.
# PDGFR-β, sequence (P09619 33-1106): as the sequence (P09619 33-1106 limits assumed, change not shown) above
Compound,IC50 [1],IC50 [2],IC50 [4],IC50 [3]
"Cc1ccc(C(=O)N[C@H]2CCCC[C@@H]2O)cc1NCc1cnc2ccsc2c1 [Example 108, N-[(1S,2S)-2-hydroxycyclohexyl]-4-methyl-3-{[(thieno[3,2-b]pyridin-6-yl)methyl]amino}benzamide]",0.051 µM,0.0023 µM,0.3 µM,0.085 µM
"Cc1ccc(C(=O)N[C@H]2CCCC[C@@H]2O)cc1NCc1cnc(N)nc1 [Example 113, 3-{[(2-aminopyrimidin-5-yl)methyl]amino}-N-[(1S,2S)-2-hydroxycyclohexyl]-4-methylbenzamide]",0.083 µM,0.0002 µM,0.7 µM,0.051 µM
"Cc1ccc(C(=O)N[C@H]2CCCC[C@@H]2O)cc1NCc1cnc(NC2CC2)nc1 [Example 114, 3-({[2-(cyclopropylamino)pyrimidin-5-yl]methyl}amino)-N-[(1S,2S)-2-hydroxycyclohexyl]-4-methylbenzamide]",0.27 µM,0.0027 µM,0.96 µM,0.19 µM
"Cc1ccc(C(=O)N[C@H]2CCCC[C@@H]2O)cc1NCc1cncc(-c2cnccn2)c1 [Example 115, N-[(1S,2S)-2-hydroxycyclohexyl]-4-methyl-3-({[5-(pyrazin-2-yl)pyridin-3-yl]methyl}amino)benzamide]",0.26 µM,0.0014 µM,1.7 µM,0.29 µM
"Cc1ccc(C(=O)N[C@H]2CCCC[C@@H]2O)cc1CNc1cncc(-c2cccnc2)c1 [Example 146, 3-{[([3,3′-bipyridin]-5-yl)amino]methyl}-N-[(1S,2S)-2-hydroxycyclohexyl]-4-methylbenzamide]",0.21 µM,0.022 µM,0.73 µM,0.044 µM
"Cc1ccc(C(=O)N[C@@H]2CCCC[C@H]2O)cc1CNc1cncc(-c2ncccn2)c1 [Example 149, N-[(1R,2R)-2-hydroxycyclohexyl]-4-methyl-3-({[5-(pyrimidin-2-yl)pyridin-3-yl]amino}methyl)benzamide]",0.22 µM,0.058 µM,0.67 µM,0.15 µM
"Cc1ccc(C(=O)N[C@@H](CO)[C@@H](O)c2ccccc2)cc1CNc1cncc(Br)c1 [Example 152, 3-{[(5-bromopyridin-3-yl)amino]methyl}-N-[(1S,2S)-1,3-dihydroxy-1-phenylpropan-2-yl]-4-methylbenzamide]",0.05 µM,0.1 µM,> 10 µM,0.082 µM
"Cc1ccc(C(=O)N[C@@H](CO)[C@@H](O)c2ccccc2)cc1CNc1cncc(-c2ccccc2)c1 [Example 153, N-[(1S,2S)-1,3-dihydroxy-1-phenylpropan-2-yl]-4-methyl-3-{[(5-phenylpyridin-3-yl)amino]methyl}benzamide]",0.088 µM,0.027 µM,7 µM,0.062 µM
"Cc1ccc(C(=O)N[C@@H](CO)[C@@H](O)c2ccccc2)cc1CNc1cncc(C2CC2)c1 [Example 154, 3-{[(5-cyclopropylpyridin-3-yl)amino]methyl}-N-[(1S,2S)-1,3-dihydroxy-1-phenylpropan-2-yl]-4-methylbenzamide]",0.34 µM,0.23 µM,> 10 µM,0.098 µM
"O=C(Nc1cc(CNc2cncc(-c3ncccn3)c2)ccc1F)N[C@@H]1CCCC[C@@H]1O [Example 160, N-[2-fluoro-5-({[5-(pyrimidin-2-yl)pyridin-3-yl]amino}methyl)phenyl]-N′-[(1R,2S)-2-hydroxycyclohexyl]urea]",0.046 µM,0.0059 µM,1.2 µM,0.044 µM
"Cc1ccc(C(=O)N[C@H]2CCCC[C@@H]2O)cc1C(C)Nc1cncc(-c2ccccc2)n1 (stereo partly drawn) [Example 164, N-[(1S,2S)-2-hydroxycyclohexyl]-4-methyl-3-{1-[(6-phenylpyrazin-2-yl)amino]ethyl}benzamide]",0.11 µM,0.18 µM,1.4 µM,0.11 µM

# Now those with a lower IC50 [1], led by results:
IC50 [1],IC50 [2],IC50 [4],Compound,IC50 [3]
0.039 µM,0.0013 µM,0.25 µM,"Cc1ccc(C(=O)N[C@H]2CCCC[C@@H]2O)cc1NCc1cnn(-c2ccccn2)c1 [Example 112, N-[(1S,2S)-2-hydroxycyclohexyl]-4-methyl-3-({[1-(pyridin-2-yl)-1H-pyrazol-4-yl]methyl}amino)benzamide]",0.026 µM
0.024 µM,0.0056 µM,0.1 µM,"Cc1ccc(C(=O)N[C@H]2CCCC[C@@H]2O)cc1CNc1cncc(-c2ncccn2)c1 [Example 147, N-[(1S,2S)-2-hydroxycyclohexyl]-4-methyl-3-({[5-(pyrimidin-2-yl)pyridin-3-yl]amino}methyl)benzamide]",0.052 µM
0.016 µM,0.0024 µM,0.17 µM,"Cc1ccc(C(=O)N[C@H]2CCCC[C@@H]2O)cc1CNc1cncc(-c2ccccn2)c1 [Example 148, 3-{[([2,3′-bipyridin]-5′-yl)amino]methyl}-N-[(1S,2S)-2-hydroxycyclohexyl]-4-methylbenzamide]",0.11 µM
0.036 µM,0.069 µM,10 µM,"Cc1ccc(C(=O)N[C@@H](CO)[C@@H](O)c2ccccc2)cc1CNc1cncc(-c2ccccn2)c1 [Example 155, 3-{[([2,3′-bipyridin]-5′-yl)amino]methyl}-N-[(1S,2S)-1,3-dihydroxy-1-phenylpropan-2-yl]-4-methylbenzamide]",0.16 µM
0.025 µM,0.022 µM,> 10 µM,"Cc1ccc(C(=O)N[C@@H](CO)[C@@H](O)c2ccccc2)cc1CNc1cncc(-c2ccccc2)n1 [Example 156, N-[(1S,2S)-1,3-dihydroxy-1-phenylpropan-2-yl]-4-methyl-3-{[(6-phenylpyrazin-2-yl)amino]methyl}benzamide]",0.079 µM
0.026 µM,0.041 µM,3 µM,"COc1ccc(-c2cncc(NCc3cccc(NC(=O)N[C@@H]4CCCC[C@@H]4O)c3)n2)cc1OC [Example 158, N-[3-({[6-(3,4-dimethoxyphenyl)pyrazin-2-yl]amino}methyl)phenyl]-N′-[(1R,2S)-2-hydroxycyclohexyl]urea]",0.022 µM
0.026 µM,0.0017 µM,0.38 µM,"O=C(Nc1cccc(CNc2cncc(-c3ncccn3)c2)c1)N[C@@H]1CCCC[C@@H]1O [Example 159, N-[(1R,2S)-2-hydroxycyclohexyl]-N′-[3-({[5-(pyrimidin-2-yl)pyridin-3-yl]amino}methyl)phenyl]urea]",0.021 µM
0.016 µM,0.0048 µM,> 10 µM,"O=C(Nc1ccc(F)c(CNc2cncc(-c3ncccn3)c2)c1)N[C@@H]1CCCC[C@@H]1O [Example 161, N-[4-fluoro-3-({[5-(pyrimidin-2-yl)pyridin-3-yl]amino}methyl)phenyl]-N′-[(1R,2S)-2-hydroxycyclohexyl]urea]",0.11 µM
0.0026 µM,0.0011 µM,0.27 µM,"Cc1ccc(NC(=O)N[C@@H]2CCCC[C@@H]2O)cc1CNc1cncc(-c2ncccn2)c1 [Example 162, N-[(1R,2S)-2-hydroxycyclohexyl]-N′-[4-methyl-3-({[5-(pyrimidin-2-yl)pyridin-3-yl]amino}methyl)phenyl]urea]",0.036 µM
